In ChEMBL document CHEMBL3044599, “Structure-activity relationship of citrus polymethoxylated flavones and their inhibitory effects on Aspergillus niger” (J Agric Food Chem, 2012):
Calls of active or inactive are those of the source. No cut-off for these calls is given here.

System: Aspergillus niger
Assay: Antifungal activity against Aspergillus niger CICC 2273 assessed as inhibition of mycelial growth by microbroth dilution method
Type: functional, organism-based

Row | Compound | inhibition
1 | COc1ccc(-c2cc(=O)c3c(O)c(OC)c(OC)c(OC)c3o2)cc1OC | Active
2 | COc1ccc(-c2oc3c(OC)c(OC)c(OC)c(OC)c3c(=O)c2O)cc1OC | inactive
3 | COc1ccc(-c2cc(=O)c3c(OC)c(OC)c(OC)cc3o2)cc1 | Active
4 | COc1ccc(-c2cc(=O)c3c(OC)c(OC)c(OC)c(OC)c3o2)cc1OC | Active
5 | COc1ccc(-c2oc3cc(OC)c(OC)c(OC)c3c(=O)c2OC)cc1OC | Active
6 | CC(=O)C[C@H]1O[C@@H](Oc2ccc3c(=O)cc(-c4ccccc4)oc3c2)[C@H](O)[C@@H](O)[C@@H]1O | inactive
